The values that follow are results of earlier work, collected in patent US20240050950A1, “GRADIENT-BASED MICROFLUIDIC CIRCUIT, DEVICE, AND METHOD FOR PERFORMING AN ASSAY” (priority 2020, published 2024).

Where a name gives a salt, the structure may show the parent alone. Square brackets hold non-standard residues; d marks the D form. Peptide text beside a SMILES is read from it. Phe(ol) = N[C@H](CO)Cc1ccccc1; Aib = CC(C)(N)C(=O)O

The conditions of one data set: Table 1, antimicrobial agents/drugs; cited from earlier work.
On to `CC(=O)OCC1=C(C(=O)O)N2C(=O)[C@@H](NC(=O)Cc3cccs3)[C@H]2SC1` [Cephalothin (Cefalotin), Cephalothin], for which the Molar volume is listed as 252.7 ± 5.0 cm^3.

Consider `Nc1nc(O)c2ncn(COC(CO)CO)c2n1` [Ganciclovir], for which the Molar volume is reported as 140.5 ± 7.0 cm^3.

`CO[C@H]1[C@@H](O)[C@H](O)[C@H](OC[C@@]23C[C@@H]4[C@H](C)CC[C@H]4[C@@]4(C=O)CC2C=C(C(C)C)[C@@]34C(=O)O)O[C@@H]1C` [Sordarin]: the Molar volume is 381.1 ± 5.0 cm^3.

On to `C/C=C/C/C=C/CCC(=O)[C@H]1O[C@H]1C(N)=O` [Cerulenin], for which the Molar volume was 196.7 ± 3.0 cm^3.

As to `CC1(C)S[C@@H]2[C@H](NC(=O)[C@H](N)c3ccc(O)cc3)C(=O)N2[C@H]1C(=O)O` [Amoxicillin], the Molar volume is on record as 236.2 ± 5.0 cm^3.

In the case of `CN[C@H]1C[C@@H](N)[C@H](O)[C@@H](O[C@@H]2O[C@H](CO)[C@H](O)[C@@H]3OC4(O[C@H]23)O[C@H]([C@@H](N)CO)[C@H](O)[C@H](O)[C@H]4O)[C@@H]1O` (stereo partly shown) [Hygromycin B (WK2130000), Hygromycin B], the Molar volume is 315.1 ± 5.0 cm^3.

As to `CC1=C(C(=O)O)N2C(=O)[C@@H](NC(=O)[C@H](N)C3=CCC=CC3)[C@H]2SC1` [Cephradine (Cefradine), Cephradine], the Molar volume was 237.2 ± 5.0 cm^3.

For the compound `CC[C@@]1([C@@H]2O[C@@H]([C@H]3O[C@@](O)(CO)[C@H](C)C[C@@H]3C)C[C@@H]2C)CC[C@H]([C@]2(C)CC[C@]3(C[C@H](O)[C@@H](C)[C@@H]([C@@H](C)[C@@H](OC)[C@H](C)C(=O)O)O3)O2)O1` [Monensin], the Molar volume is 552.7 ± 5.0 cm^3.

As for `CCn1cc(C(=O)O)c(=O)c2cnc(N3CCNCC3)nc21` [Pipemidic acid], the Molar volume is listed as 219.6 ± 3.0 cm^3.

Turning to `CC[C@H]1OC(=O)[C@H](C)[C@@H](O[C@H]2C[C@@](C)(OC)[C@@H](O)[C@H](C)O2)[C@H](C)[C@@H](O[C@@H]2O[C@H](C)C[C@H](N(C)C)[C@H]2O)[C@](C)(O)C[C@@H](C)/C(=N\OCOCCOC)[C@H](C)[C@@H](O)[C@]1(C)O` [Roxithromycin], the Molar volume is given as 666.3 ± 7.0 cm^3.

For `Cn1cc(NC(=O)c2cc(NC(=O)CN=C(N)N)cn2C)cc1C(=O)NCCC(=N)N` [Netropsin (Congocidin, Sinanomycin), Netropsin], the Molar volume was 282.7 ± 7.0 cm^3.

As for `NCC[C@H](O)C(=O)N[C@@H]1C[C@H](N)[C@@H](O[C@H]2O[C@H](CN)[C@@H](O)[C@H](O)[C@H]2O)[C@H](O)[C@H]1O[C@H]1O[C@H](CO)[C@@H](O)[C@H](N)[C@H]1O` [Amikacin], the Molar volume is given as 363.9 ± 5.0 cm^3.

Consider `CO[C@H]1/C=C/O[C@@]2(C)Oc3c(C)c(O)c4c(c3C2=O)C2=NC3(CCN(CC(C)C)CC3)NC2=C(NC(=O)/C(C)=C\C=C\[C@H](C)[C@H](O)[C@@H](C)[C@@H](O)[C@@H](C)[C@H](OC(C)=O)[C@@H]1C)C4=O` [Rifabutin], for which the Molar volume was 632.4 ± 7.0 cm^3.

For `CO[C@@H]1[C@H](OC(=O)/C=C/C=C/C=C/C=C/C(=O)O)CC[C@]2(CO2)[C@H]1[C@@]1(C)O[C@@H]1CC=C(C)C` [Fumagillin], the Molar volume was 383.2 ± 5.0 cm^3.

For the compound `CN(CC[C@H](N)CC(=O)N[C@H]1C=C[C@H](n2ccc(N)nc2=O)O[C@@H]1C(=O)O)C(=N)N` [Blasticidine (Blasticidin S), Blasticidin S], the Molar volume is listed as 261.9 ± 7.0 cm^3.

`CC[C@@H]1/C=C/C=C/C[C@H](C)[C@H](O)[C@](C)(O)C(=O)[C@H](C)[C@@H](O)[C@H](C)C(=O)[C@H](C)[C@@H](O)[C@H](C)/C=C/C(=O)O[C@H]2[C@@H](C)[C@@H](CC1)O[C@@]1(CC[C@@H](C)[C@@H](C[C@H](C)O)O1)[C@@H]2C` [Oligomycin A]: the Molar volume is 688.2 ± 5.0 cm^3.

For the compound `COc1cc(/C=N/O)nc(-c2ccccn2)c1` [Caerulomycin A], the Molar volume was 185.8 ± 7.0 cm^3.

For the compound `CC[C@@H](C(=O)[C@@H](C)[C@@H](O)[C@H](C)[C@@H]1O[C@@H]([C@@H](CC)C(=O)O)CC[C@@H]1C)[C@H]1O[C@]2(C=C[C@@H](O)[C@]3(CC[C@@](C)([C@H]4CC[C@](O)(CC)[C@H](C)O4)O3)O2)[C@H](C)C[C@@H]1C` [Salinomycin], the Molar volume is 633.5 ± 5.0 cm^3.

For the compound `CC(=O)NC(C)(C)C(=O)N1CCC[C@H]1C(=O)NC(C)(C)C(=O)N[C@@H](C)C(=O)NC(C)(C)C(=O)N[C@@H](C)C(=O)N[C@@H](CCC(N)=O)C(=O)NC(C)(C)C(=O)N[C@H](C(=O)NC(C)(C)C(=O)NCC(=O)N[C@@H](CC(C)C)C(=O)NC(C)(C)C(=O)N1CCC[C@H]1C(=O)N[C@H](C(=O)NC(C)(C)C(=O)NC(C)(C)C(=O)N[C@@H](CCC(=O)O)C(=O)N[C@@H](CCC(N)=O)C(=O)N[C@H](CO)Cc1ccccc1)C(C)C)C(C)C` [Alamethicin] (Ac-[Aib]P[Aib]A[Aib]AQ[Aib]V[Aib]GL[Aib]PV[Aib][Aib]EQ[Phe(ol)]), the Molar volume is listed as 1583.4 ± 3.0 cm^3.

For `COc1cccc2c1C(=O)c1c(O)c3c(c(O)c1C2=O)C[C@@](O)(C(C)=O)C[C@@H]3O[C@H]1C[C@H](N)[C@H](O)[C@H](C)O1` [Daunorubicin (Daunomycin), Daunorubicin], the Molar volume is listed as 339.4 ± 5.0 cm^3.

`CCOc1ccc2ccccc2c1C(=O)N[C@@H]1C(=O)N2[C@@H]1SC(C)(C)[C@@H]2C(=O)O` [Nafcillin]: the Molar volume is reported as 289.8 ± 5.0 cm^3.

On to `COC(=O)Nc1nc2cc(C(=O)c3ccc(F)cc3)ccc2[nH]1` [Flubendazol (Flumoxanal), Flubendazol], for which the Molar volume is 216.8 ± 3.0 cm^3.

For the compound Kirromycin [Kirromycin (mocimycin)], the Molar volume was 622.6 ± 3.0 cm^3.

Take `Oc1ccc(Cl)cc1Cc1cc(Cl)ccc1O` [Dichlorophene]: the Molar volume is on record as 189.5 ± 3.0 cm^3.

Turning to `CO[C@@]1(NC(=O)C(C(=O)O)c2ccc(O)cc2)C(=O)N2C(C(=O)O)=C(CSc3nnnn3C)CO[C@@H]21` (stereo partly shown) [Moxalactam (Latamoxef), Moxalactam], the Molar volume is 292.5 ± 7.0 cm^3.

Regarding `C[C@@H]1C[C@H](C)C[C@H](C)[C@@H](O)CC(=O)O[C@H]([C@@H]2CCC[C@H]2C(=O)O)C/C=C/C=C(/C#N)[C@H](O)[C@@H](C)C1` [Borrelidin], the Molar volume was 426.5 ± 5.0 cm^3.

For the compound `Nc1ncnc2c1ncn2[C@@H]1O[C@H](CO)[C@@H](O)[C@@H]1O` [Adenine 9-β-D-arabinofuranoside], the Molar volume is reported as 128.1 ± 7.0 cm^3.

Staying with this data set, now noted: Table 2, anticancer drugs; cited from earlier work.
As for `CC(C)(O)CNc1nc(Nc2ccnc(C(F)(F)F)c2)nc(-c2cccc(C(F)(F)F)n2)n1` [Enasidenib Mesylate], the Molar volume is on record as 320.4 ± 3.0 cm^3.

As to `C[C@@H](OC[C@@]1(c2ccccc2)CC[C@]2(CCC(=O)N2)CN1)c1cc(C(F)(F)F)cc(C(F)(F)F)c1` [Rolapitant Hydrochloride], the Molar volume is on record as 373.3 ± 5.0 cm^3.

On to `CC(C)C[C@H](NC(=O)[C@H](CCc1ccccc1)NC(=O)CN1CCOCC1)C(=O)N[C@@H](Cc1ccccc1)C(=O)N[C@@H](CC(C)C)C(=O)[C@@]1(C)CO1` [Carfilzomib (Kyprolis), Carfilzomib], for which the Molar volume is 619.5 ± 3.0 cm^3.

On to `Nc1cccc2c1C(=O)N(C1CCC(=O)NC1=O)C2=O` (stereo not shown) [Pomalidomide], for which the Molar volume is reported as 173.9 ± 3.0 cm^3.

Consider `CO[C@H]1C(=O)[C@]2(C)[C@@H](OC)C[C@H]3OC[C@@]3(OC(C)=O)[C@H]2[C@H](OC(=O)c2ccccc2)[C@]2(O)C[C@H](OC(=O)[C@H](O)[C@@H](NC(=O)OC(C)(C)C)c3ccccc3)C(C)=C1C2(C)C` [Cabazitaxel], for which the Molar volume is listed as 635.1 ± 5.0 cm^3.

For `CNC(=O)c1cc(Oc2ccc(NC(=O)Nc3ccc(Cl)c(C(F)(F)F)c3)c(F)c2)ccn1` [Regorafenib], the Molar volume is recorded as 323.6 ± 3.0 cm^3.

Take `C[C@@H](Oc1cc(-c2cnn(C3CCNCC3)c2)cnc1N)c1c(Cl)ccc(F)c1Cl` [Crizotinib (Xalkori), Crizotinib]: the Molar volume was 305.2 ± 7.0 cm^3.

Regarding `COc1cc([C@@H]2c3cc4c(cc3[C@@H](O[C@@H]3O[C@@H]5CO[C@@H](C)O[C@H]5[C@H](O)[C@H]3O)[C@H]3COC(=O)[C@H]23)OCO4)cc(OC)c1OP(=O)(O)O` [Etopophos (Etoposide Phosphate), Etoposide Phosphate], the Molar volume was 406.7 ± 5.0 cm^3.

On to `O=C1c2cccc3c2[C@H](CCC3)CN1[C@@H]1CN2CCC1CC2` [Aloxi (Palonosetron Hydrochloride), Palonosetron Hydrochloride], for which the Molar volume is listed as 238.6 ± 5.0 cm^3.

For `CC(C)NCC(O)COc1cccc2ccccc12` (stereo not shown) [Hemangeol (Propranolol Hydrochloride), Propranolol Hydrochloride], the Molar volume is given as 237.1 ± 3.0 cm^3.

Turning to `CC(=O)O[C@H]1CC[C@@]2(C)C(=CC[C@@H]3[C@@H]2CC[C@]2(C)C(c4cccnc4)=CC[C@@H]32)C1` [Abiraterone acetate (Zytiga), Abiraterone acetate], the Molar volume was 343.0 ± 5.0 cm^3.

For `Nc1nc(Cl)nc2c1ncn2[C@@H]1O[C@H](CO)[C@@H](O)[C@@H]1F` [Clofarabine], the Molar volume is reported as 143.0 ± 7.0 cm^3.

Turning to `O=c1[nH]cc(F)c(=O)[nH]1` [Carac (Fluorouracil-Topical, Tolak), Fluorouracil], the Molar volume was 84.5 ± 5.0 cm^3.

Turning to `O=C(Nc1cnn2ccc(N3CCC[C@@H]3c3cc(F)ccc3F)nc12)N1CC[C@H](O)C1` [Larotrectinib Sulfate (Vitrakvi), Larotrectinib Sulfate], the Molar volume is recorded as 274.6 ± 7.0 cm^3.

The data set is the same for the next values; noted with them: Table 3, antifungal drugs and other molecules; cited from earlier work.
Regarding `CN(C/C=C/C#CC(C)(C)C)Cc1cccc2ccccc12` [Terbinafine], the Molar volume is reported as 289.1 cm^3.

With `CC[C@@H]1/C=C/C=C/C[C@H](C)[C@H](O)[C@](C)(O)C(=O)[C@H](C)[C@@H](O)[C@H](C)C(=O)[C@H](C)[C@@H](O)[C@H](C)/C=C/C(=O)O[C@H]2[C@@H](C)[C@@H](CC1)O[C@@]1(CC[C@@H](C)[C@@H](C[C@H](C)O)O1)[C@@H]2C` [Oligomycin A], the Molar volume is 688.2 ± 5.0 cm^3.

With `C[C@H]1O[C@H](O[C@H]2[C@H](O)[C@@H](O)[C@@H](O)[C@H](O)[C@@H]2O)[C@@H](N)C[C@@H]1NC(=N)C(=O)O` [Kasugamycin], the Molar volume is given as 192.2 ± 7.0 cm^3.

Take Antimycin: the Molar volume is listed as 431.0 ± 5.0 cm^3.

In the case of Cinnamycin, the Molar volume is given as 1281.0 ± 7.0 cm^3.
